Assay [1] in a line: Effect on blood pressure, telemetry (Example 17). Type of assay: in vivo. To be noted: Sprague Dawley rats, 0.1 mg/kg SC. Here is the method:
The effect of the compounds on blood pressure was determined in telemetry studies in Sprague Dawley rats at a dosage of 0.1 mg/kg SC.
The rats were previously implanted with a telemetry device (DSI, Saint-Paul, USA, HD-S10, HD-S11 or HD S21) and allowed to recover for a minimum period of 2 weeks before treatment with vehicle or the different peptides. Blood pressure (BP) was recorded through a catheter inserted into the abdominal aorta. The device body was placed in the abdomen. At the end of surgery, animals were placed in individual cages until the end of the study.
Pressure signals were recorded for one hour before the treatment (basal period). Thereafter, the subcutaneous administration of the test compound or its vehicle was performed, under continuous recording of the signal over a 48-hour period. Data acquisition was performed using Hem 4.3 acquisition software (Notocord®, Le Pecq, France) connected to the telemetry device. Hemodynamic parameters were recorded during a […] before treatment and every 4-hour period following subcutaneous administration over 48 hours.
Investigated parameters (calculated from BP signal) were Heart Rate (HR) in beats per minute (bpm), Diastolic and Systolic Blood Pressure (DBP) in mmHg, and Mean Blood Pressure (MBP) in mmHg.
Data from Hem were manipulated using Microsoft Excel®. For each parameter, a basal value was determined as the average calculated over a 1-hour period during the pre-treatment sequence, and the values post treatment were calculated over 4-hour periods ([0-4], [4-8], [8-12], [12-16], [16-20], [20-24], [24-28], [32-36], [36-40], [40-44] and [44-48] hours) covering the 48-hour period following administration.
Representative data are presented in Table 15 below, in which “n” represents the number of animals for which individual values were obtained and “Duration” indicates the last time point for which a significant effect on BP was still seen: Table 15

For assay [2], the target named is human corticotropin-releasing factor 2α (CRF2α receptor) (human), Q13324. The experiment in a line: cell-based or functional assay.
Chain of human corticotropin-releasing factor 2α (CRF2α receptor) (human), Q13324 (Q13324 20-411): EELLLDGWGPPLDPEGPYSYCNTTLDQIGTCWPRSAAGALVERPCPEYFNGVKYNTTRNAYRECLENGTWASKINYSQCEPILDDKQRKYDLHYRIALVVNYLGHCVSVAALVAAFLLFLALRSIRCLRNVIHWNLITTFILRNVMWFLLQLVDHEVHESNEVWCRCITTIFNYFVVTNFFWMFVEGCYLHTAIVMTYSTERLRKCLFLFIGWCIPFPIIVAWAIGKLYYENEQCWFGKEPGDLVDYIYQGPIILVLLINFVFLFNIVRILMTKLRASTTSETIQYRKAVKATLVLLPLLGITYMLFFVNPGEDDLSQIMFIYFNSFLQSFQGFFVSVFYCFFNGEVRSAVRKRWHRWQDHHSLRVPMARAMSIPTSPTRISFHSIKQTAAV
Assay [3] addresses human corticotropin-releasing factor 2α receptor (CRF2α receptor) (human), Q13324. The experiment in a line: cell-based or functional assay.

Starred links: 1 amine or outer side, 2 acyl side, 3 side chain; linkers in the order of their positions; H or OH if unused. Non-standard residues stand in square brackets, D forms with d. Residues, ends and D or L forms follow the SMILES beside them. Groups on a side chain read outwards from the residue. No end group written: not given here. *: point of attachment. C18 diacid = O=C(O)CCCCCCCCCCCCCCCCC(=O)*; C16 diacid = O=C(O)CCCCCCCCCCCCCCC(=O)*; γGlu = O=C(O)[C@H](CCC(=O)[*:2])N[*:1]; AEEA = NCCOCCOCC(=O)O; Aib = CC(C)(N)C(=O)O

Chain of human corticotropin-releasing factor 2α receptor (CRF2α receptor) (human), Q13324 (Q13324 20-411): as above

In the case of `CC[C@H](C)[C@H](N)C(=O)N[C@H](C(=O)N[C@@H](CC(C)C)C(=O)N[C@@H](CO)C(=O)N[C@@H](CC(C)C)C(=O)N[C@@H](CC(=O)O)C(=O)N[C@@H](C(=O)N1CCC[C@H]1C(=O)N[C@H](C(=O)N[C@@H](CCCCN)C(=O)N[C@@H](CC(C)C)C(=O)N[C@@H](CCCCNC(=O)COCCOCCNC(=O)COCCOCCNC(=O)CC[C@H](NC(=O)CCCCCCCCCCCCCCCCC(=O)O)C(=O)O)C(=O)N[C@@H](CCC(N)=O)C(=O)N[C@H](C(=O)N[C@@H](CC(C)C)C(=O)N[C@@H](CC(C)C)C(=O)N[C@@H](CCCCN)C(=O)N[C@@H](CCC(N)=O)C(=O)N[C@@H](CCC(=O)O)C(=O)N[C@@H](CCCNC(=N)N)C(=O)N[C@@H](CCC(N)=O)C(=O)N[C@@H](CCCCN)C(=O)N[C@@H](CCCCN)C(=O)NC(C)(C)C(=O)N[C@@H](CCCNC(=N)N)C(=O)N[C@@H](CCC(=O)O)C(=O)N[C@@H](CCC(N)=O)C(=O)N[C@@H](C)C(=O)N[C@@H](CCC(=O)O)C(=O)N[C@H](C(=O)N[C@@H](CC(N)=O)C(=O)N[C@@H](CCCCN)C(=O)N[C@@H](CCCNC(=N)N)C(=O)N[C@H](C(=O)N[C@@H](CC(C)C)C(=O)N[C@@H](CCC(=O)O)C(=O)N[C@@H](CCCNC(=N)N)C(=O)N[C@H](C(N)=O)C(C)C)[C@@H](C)CC)[C@@H](C)O)[C@@H](C)CC)[C@@H](C)CC)C(C)C)C(C)C` [SEQ ID NO: 149, IVLSLDvPIKLK*QILLKQERQKKAibREQAETNKRILERV-NH2] (H-IVLSLD[dV]PIKLK([AEEA-AEEA-γGlu-C18 diacid])QILLKQERQKK[Aib]REQAETNKRILERV-NH2), in assay [1], the “Duration (h): last time point for which a significant effect on BP was still seen” value was determined as 30 h, the “Effect on Systolic Pressure % change from baseline 8 h” value was −11.5% and the “Effect on Systolic Pressure % change from baseline 24 h” value is −2.5%.

As to `CC[C@H](C)[C@H](N)C(=O)N[C@H](C(=O)N[C@@H](CC(C)C)C(=O)N[C@@H](CO)C(=O)N[C@@H](CC(C)C)C(=O)N[C@@H](CC(=O)O)C(=O)N[C@@H](C(=O)N1CCC[C@H]1C(=O)N[C@H](C(=O)NCC(=O)N[C@@H](CC(C)C)C(=O)N[C@@H](CCCCNC(=O)COCCOCCNC(=O)COCCOCCNC(=O)CC[C@H](NC(=O)CCCCCCCCCCCCCCCCC(=O)O)C(=O)O)C(=O)N[C@@H](CCC(N)=O)C(=O)N[C@H](C(=O)N[C@@H](CC(C)C)C(=O)N[C@@H](CC(C)C)C(=O)N[C@@H](CCCCN)C(=O)N[C@@H](CCC(N)=O)C(=O)N[C@@H](CCC(=O)O)C(=O)N[C@@H](CCCNC(=N)N)C(=O)N[C@@H](CCC(N)=O)C(=O)N[C@@H](CCCCN)C(=O)N[C@@H](CCCCN)C(=O)NC(C)(C)C(=O)N[C@@H](CCCNC(=N)N)C(=O)N[C@@H](CCC(=O)O)C(=O)N[C@@H](CCC(N)=O)C(=O)N[C@@H](C)C(=O)N[C@@H](CCC(=O)O)C(=O)N[C@@H](CCCCN)C(=O)N[C@@H](CC(N)=O)C(=O)N[C@@H](CCCCN)C(=O)N[C@@H](CCCNC(=N)N)C(=O)N[C@H](C(=O)N[C@@H](CC(C)C)C(=O)N[C@@H](CCC(=O)O)C(=O)N[C@@H](CCCNC(=N)N)C(=O)N[C@H](C(N)=O)C(C)C)[C@@H](C)CC)[C@@H](C)CC)[C@@H](C)CC)C(C)C)C(C)C` [SEQ ID NO: 151, IVLSLDvPIGLK*QILLKQERQKKAibREQAEKNKRILERV-NH2] (H-IVLSLD[dV]PIGLK([AEEA-AEEA-γGlu-C18 diacid])QILLKQERQKK[Aib]REQAEKNKRILERV-NH2), in assay [1], the “Duration (h): last time point for which a significant effect on BP was still seen” value amounted to 28 h, the “Effect on Systolic Pressure % change from baseline 8 h” value was −12.3% and the “Effect on Systolic Pressure % change from baseline 24 h” value is −3.8%.

Turning to `CC[C@H](C)[C@H](N)C(=O)N[C@H](C(=O)N[C@@H](CC(C)C)C(=O)N[C@@H](CO)C(=O)N[C@@H](CC(C)C)C(=O)N[C@@H](CC(=O)O)C(=O)N[C@H](C(=O)N1CCC[C@H]1C(=O)N[C@H](C(=O)N[C@@H](CCCCN)C(=O)N[C@@H](CC(C)C)C(=O)N[C@@H](CCCCNC(=O)COCCOCCNC(=O)COCCOCCNC(=O)CC[C@H](NC(=O)CCCCCCCCCCCCCCCCC(=O)O)C(=O)O)C(=O)N[C@@H](CCC(N)=O)C(=O)N[C@H](C(=O)N[C@@H](CC(C)C)C(=O)N[C@@H](CC(C)C)C(=O)N[C@@H](CCCCN)C(=O)N[C@@H](CCC(N)=O)C(=O)N[C@@H](CCC(=O)O)C(=O)N[C@@H](CCCNC(=N)N)C(=O)N[C@@H](CCC(N)=O)C(=O)N[C@@H](CCCCN)C(=O)N[C@@H](CCCCN)C(=O)NC(C)(C)C(=O)N[C@@H](CCCNC(=N)N)C(=O)N[C@@H](CCC(=O)O)C(=O)N[C@@H](CCC(N)=O)C(=O)N[C@@H](C)C(=O)N[C@@H](CCC(=O)O)C(=O)N[C@H](C(=O)N[C@@H](CC(N)=O)C(=O)N[C@@H](CCCCN)C(=O)N[C@@H](CCCNC(=N)N)C(=O)N[C@H](C(=O)N[C@@H](CC(C)C)C(=O)N[C@@H](CCC(=O)O)C(=O)N[C@@H](CCCNC(=N)N)C(=O)N[C@H](C(N)=O)C(C)C)[C@@H](C)CC)[C@@H](C)O)[C@@H](C)CC)[C@@H](C)CC)C(C)C)C(C)C` [SEQ ID NO: 152, IVLSLDVPIKLK*QILLKQERQKKAibREQAETNKRILERV-NH2] (H-IVLSLDVPIKLK([AEEA-AEEA-γGlu-C18 diacid])QILLKQERQKK[Aib]REQAETNKRILERV-NH2), in assay [1], the “Duration (h): last time point for which a significant effect on BP was still seen” value turned out to be 20 h, the “Effect on Systolic Pressure % change from baseline 8 h” value is recorded as −8.6% and the “Effect on Systolic Pressure % change from baseline 24 h” value was −6.0%.

B1: peptide of SEQ ID NO: 187 (peptide)
peptide: IVLSLD[dV]PIKLK([γGlu-C16 diacid])QILLKQERQK[Aib]QREQAEKNKQILAQV-NH2
modifications: N-terminus assumed
SMILES: CC[C@H](C)[C@H](N)C(=O)N[C@H](C(=O)N[C@@H](CC(C)C)C(=O)N[C@@H](CO)C(=O)N[C@@H](CC(C)C)C(=O)N[C@@H](CC(=O)O)C(=O)N[C@@H](C(=O)N1CCC[C@H]1C(=O)N[C@H](C(=O)N[C@@H](CCCCN)C(=O)N[C@@H](CC(C)C)C(=O)N[C@@H](CCCCNC(=O)CC[C@H](NC(=O)CCCCCCCCCCCCCCC(=O)O)C(=O)O)C(=O)N[C@@H](CCC(N)=O)C(=O)N[C@H](C(=O)N[C@@H](CC(C)C)C(=O)N[C@@H](CC(C)C)C(=O)N[C@@H](CCCCN)C(=O)N[C@@H](CCC(N)=O)C(=O)N[C@@H](CCC(=O)O)C(=O)N[C@@H](CCCNC(=N)N)C(=O)N[C@@H](CCC(N)=O)C(=O)N[C@@H](CCCCN)C(=O)NC(C)(C)C(=O)N[C@@H](CCC(N)=O)C(=O)N[C@@H](CCCNC(=N)N)C(=O)N[C@@H](CCC(=O)O)C(=O)N[C@@H](CCC(N)=O)C(=O)N[C@@H](C)C(=O)N[C@@H](CCC(=O)O)C(=O)N[C@@H](CCCCN)C(=O)N[C@@H](CC(N)=O)C(=O)N[C@@H](CCCCN)C(=O)N[C@@H](CCC(N)=O)C(=O)N[C@H](C(=O)N[C@@H](CC(C)C)C(=O)N[C@@H](C)C(=O)N[C@@H](CCC(N)=O)C(=O)N[C@H](C(N)=O)C(C)C)[C@@H](C)CC)[C@@H](C)CC)[C@@H](C)CC)C(C)C)C(C)C
In turn, B1 yielded an EC50 [nM], 0% HSA (cAMP, HTRF) in assay [2] of 0.44 nM. Besides, in assay [3], the CRF2 EC50 (cAMP, HTRF) was found to be 0.44 nM.

Source of the values: US12679878B2, “CRF2 receptor agonists and their use in therapy” (SANOFI, priority 2020, dated 2026).
